Data on 12 compounds can be found in ChEMBL document CHEMBL1201862, “PubChem BioAssay data set” (2004).

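The compound was tested at five concentrations on cells cultured in 96-well plates, with a 48-hour exposure period. GI50 = concentration required for 50% inhibition of growth.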 Activity calls are given as the source filed them. No stated cut-off is given here; in the data, active = GI50 up to about 1.1 µM and inactive = higher.

What all share (assay): growth of human tumour cells (NCI), 48 h
The subject of test [1] is A498.
Test [2] has as its system ACHN.
Test [3] relates to CAKI-1.
Test [4] has as its system CCRF-CEM.
In test [5] the test system is HT-29.
In test [6] the test system is K562.
The subject of test [7] is KM-20L2.
Test [8] deals with LOX IMVI.
The test system of test [9] is M14.
For test [10], the system named is NCI-H23.
In test [11] the test system is OVCAR-3.
The subject of test [12] is OVCAR-8.
Test [13] concerns SF-539.
Test [14] relates to SK-OV-3.
Test [15] deals with SN12C.
The subject of test [16] is UACC-257.
Test [17] has as its system BT-549.
The subject of test [18] is MCF7.
The test system of test [19] is MDA-MB-231.
Test [20] has as its system PC-3.

For `CC1(C)OB(O)OC1(C)C`, the GI50 in test [1], in test [2], in test [3], in test [4], in test [5] and in test [6] was > 100 µM (inactive) each time. The GI50 in test [7], in [8], in [9], in test [10], in test [11] and in [12] was > 100 µM (inactive) in each case. The GI50 in [13], in [14], in test [15] and in test [16] was > 100 µM (inactive) throughout.

On to `O=C(O)/C(Cl)=C(\Cl)C(=O)NC1C2CC3CC(C2)CC1C3` (stereo unspecified), for which the GI50 in test [1], in [2], in test [3], in test [4], in [5] and in test [6] was > 100 µM (inactive) each time. Moreover, the GI50 in test [7], in test [8], in test [9], in [10], in test [11] and in test [12] was > 100 µM (inactive) each time. Moreover, the GI50 in test [13], in test [14], in test [15] and in test [16] was > 100 µM (inactive) throughout.

Consider `CC(C)c1ccc(C2NC(S)=NC3=C2c2ccccc2C3=O)cc1` (stereo unspecified), for which the GI50 in test [1] was 36.7 µM (inactive); in [2], 27.7 µM (inactive); in test [17], 17.1 µM (inactive); in test [3], 22.8 µM (inactive); in test [4] it was 26.5 µM (inactive); in [5] it was 25.5 µM (inactive). In addition, the GI50 in [6] is 22.6 µM (inactive); in test [7], 25.6 µM (inactive); in test [8], 20.6 µM (inactive); in [9], 28 µM (inactive); in test [18], 10.2 µM (inactive); in [19], 16.9 µM (inactive). For the same compound, the GI50 is 23.6 µM (inactive) in test [10]; 26.2 µM (inactive) in [11]; 32.1 µM (inactive) in test [12]; 11.3 µM (inactive) in [20]; 18.7 µM (inactive) in [13]; 25.4 µM (inactive) in test [14]. Further, the GI50 in test [15] is 24.7 µM (inactive); in [16] it was > 41.4 µM (inactive).

In the case of `C1CCNCC1.S=C(S)N1CCCCC1`, the GI50 in test [1] was 36.7 µM (inactive); in test [2], 87.7 µM (inactive); in test [17], 406 µM (inactive); in test [3], 33.4 µM (inactive); in [6], 0.601 µM (active); in test [7], 100 µM (inactive). In addition, the GI50 in test [8] is 60.5 µM (inactive); in test [9], 25.4 µM (inactive); in test [18] it was 26.4 µM (inactive); in test [19], 16.1 µM (inactive); in test [10] it was 62.2 µM (inactive); in test [11], 71 µM (inactive). The GI50 in test [12] was 61.1 µM (inactive); in [20] it was 37.7 µM (inactive); in test [13], 80.7 µM (inactive); in test [14], 92.5 µM (inactive); in [15] it was 64.6 µM (inactive); in test [16] it was 28.4 µM (inactive).

Consider `Cc1nccc2c1cnc1ccnn12`, for which the GI50 in test [1], in test [2], in test [3], in [4], in [5] and in test [6] was > 100 µM (inactive) in each case. For the same compound, the GI50 in [7], in [8], in test [9], in test [10], in test [11] and in test [12] was > 100 µM (inactive) throughout. For the same compound, the GI50 in test [13], in test [14], in test [15] and in [16] was > 100 µM (inactive) each time.

Regarding `CC(=O)OC12c3ccccc3C1CCCCCC21OCCCO1` (stereo unspecified), the GI50 in test [1], in test [2], in test [3], in [4], in [5] and in test [6] was > 100 µM (inactive) throughout. Besides, the GI50 in test [7], in test [8], in [9], in [10], in test [11] and in test [12] was > 100 µM (inactive) each time. Besides, the GI50 in test [13], in [14] and in test [15] was > 100 µM (inactive) throughout.

With `Cc1cc(C)nc(NS(=O)(=O)c2ccc(NC(=O)c3cccc4c(Nc5ccc(S(=O)(=O)N=C(N)N)cc5)c5ccccc5nc34)cc2)n1`, the GI50 was > 100 µM (inactive) in [1]; 47.1 µM (inactive) in test [2]; 20.5 µM (inactive) in test [3]; 45.6 µM (inactive) in test [4]; 37.1 µM (inactive) in test [5]; 7.6 µM (inactive) in [6]. For the same compound, the GI50 in test [7] is 34.2 µM (inactive); in test [8] it was 39.5 µM (inactive); in test [9] it was 94.6 µM (inactive); in test [10] it was 40 µM (inactive); in [11] it was 10.5 µM (inactive); in test [12], 7.94 µM (inactive). Moreover, the GI50 in test [13] was 17.3 µM (inactive); in test [14] it was > 100 µM (inactive); in [15], 50.7 µM (inactive); in [16] it was 24.7 µM (inactive).

Take `CN(C)CC1CCC/C1=N\O` (stereo unspecified): the GI50 in [1], in test [2], in test [3], in test [4], in [5] and in test [6] was > 100 µM (inactive) in each case. Further, the GI50 in test [7], in [8], in [9], in test [10], in test [11] and in [12] was > 100 µM (inactive) each time. Also, the GI50 in test [13], in test [14], in [15] and in test [16] was > 100 µM (inactive) throughout.

As to `CC(CC(=O)N1C(=O)C(C)(C)[C@@H](O)[C@H]1CC(C)C(Cl)(Cl)Cl)C(Cl)(Cl)Cl` (stereo partly specified), the GI50 in test [1], in test [2], in [3], in test [4], in [5] and in [6] was > 100 µM (inactive) in each case. Also, the GI50 in test [7], in test [8], in [9], in test [11], in test [12] and in test [13] was > 100 µM (inactive) throughout. In addition, the GI50 in test [14], in test [15] and in [16] was > 100 µM (inactive) throughout.

With `COC(=O)C1=C(c2cc(OC)c(OC)c(OC)c2)OC(c2ccc3c(c2)OCO3)C1` (stereo unspecified), the GI50 was 8.95 µM (inactive) in [1]; 26.3 µM (inactive) in [2]; 22.6 µM (inactive) in test [3]; 27.6 µM (inactive) in test [4]; 27.2 µM (inactive) in [5]; 9.48 µM (inactive) in [6]. Moreover, the GI50 in [7] was 19.7 µM (inactive); in test [8], 6.28 µM (inactive); in [9], 29.4 µM (inactive); in [10], 25.7 µM (inactive); in test [11], 26.9 µM (inactive); in test [12] it was 37.9 µM (inactive). For the same compound, the GI50 is 20.7 µM (inactive) in test [13], 45.5 µM (inactive) in test [14], 20.3 µM (inactive) in [15] and 54.3 µM (inactive) in test [16].

Regarding `CCc1cccc(C)c1N1C(=O)C(=O)C(c2nc3ccccc3o2)/C(=N/NC(=S)NN)C1=O` (stereo unspecified), the GI50 in [1], in test [2], in [3], in test [4], in test [5] and in test [6] was > 100 µM (inactive) throughout. Also, the GI50 in test [7], in test [8], in [9], in [10], in test [11] and in [12] was > 100 µM (inactive) throughout. The GI50 in test [13], in test [14], in test [15] and in test [16] was > 100 µM (inactive) in each case.

In the case of `CCOc1ccc2[nH]c3c(C)c4ccncc4c(C)c3c2c1`, the GI50 was 1.8 µM (inactive) in test [1]; 1.07 µM (active) in test [2]; 1.69 µM (inactive) in test [3]; 0.649 µM (active) in test [4]; 0.71 µM (active) in test [5]; 0.377 µM (active) in [6]. The GI50 in test [7] was 1.08 µM (active); in test [8], 1.2 µM (inactive); in test [9], 1.55 µM (inactive); in test [10], 1.45 µM (inactive); in test [11], 4.27 µM (inactive); in [12] it was 0.789 µM (active). Further, the GI50 was 1.58 µM (inactive) in test [13], 3.91 µM (inactive) in [14], 0.564 µM (active) in [15] and 1.75 µM (inactive) in test [16].
